Assay results from US12077503B2, “Substituted cyclic amides and their use as herbicides” (FMC CORPORATION, priority 2015, dated 2024).

Legend:
Format in all cases: in vivo
[1] = test system: ragweed (common ragweed, Ambrosia elatior); test: Test A preemergence; conditions: for Plant response rating, Ragweed: 125 g ai/ha, preemergence, 0 to 100 scale (0 no effect, 100 complete control); for Ragweed plant response rating (0 to 100 scale, 0 is no effect, 100 is complete control): Preemergence, 500 g ai/ha, visual injury approx. 10 d
In short: (§1)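 Preemergence directed soil spray on seeded pots, or postemergence application to plants 2–10 cm, one- to two-leaf. Solvent mixture non-phytotoxic, with surfactant. Scored ~10 d later, visually, 0–100 vs untreated.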

[2] = test system: ryegrass, Italian (Italian ryegrass, Lolium multiflorum); test: Test A preemergence; conditions: for Plant response rating, Ryegrass, Italian: 125 g ai/ha, preemergence, 0 to 100 scale (0 no effect, 100 complete control); for Ryegrass, Italian plant response rating (0 to 100 scale, 0 is no effect, 100 is complete control): Preemergence, 500 g ai/ha, visual injury approx. 10 d
In short: as §1

[3] = test system: Kochia (Kochia scoparia); test: Test A preemergence; conditions: for Plant response rating, Kochia: 125 g ai/ha, preemergence, 0 to 100 scale (0 no effect, 100 complete control); for Kochia plant response rating (0 to 100 scale, 0 is no effect, 100 is complete control): Preemergence, 500 g ai/ha, visual injury approx. 10 d
In short: as §1

[4] = test system: giant foxtail (Setaria faberii); test: Test A preemergence; conditions: for Plant response rating, Foxtail, Giant: 125 g ai/ha, preemergence, 0 to 100 scale (0 no effect, 100 complete control); for Foxtail, Giant plant response rating (0 to 100 scale, 0 is no effect, 100 is complete control): Preemergence, 500 g ai/ha, visual injury approx. 10 d
In short: as §1

[5] = test system: barnyardgrass (Echinochloa crus-galli); test: Test A preemergence; conditions: for Plant response rating, Barnyardgrass: 125 g ai/ha, preemergence, 0 to 100 scale (0 no effect, 100 complete control); for Barnyardgrass plant response rating (0 to 100 scale, 0 is no effect, 100 is complete control): Preemergence, 500 g ai/ha, visual injury approx. 10 d
In short: as §1

[6] = test system: pigweed (Amaranthus retroflexus); test: Test A preemergence; conditions: for Plant response rating, Pigweed: 125 g ai/ha, preemergence, 0 to 100 scale (0 no effect, 100 complete control); for Pigweed plant response rating (0 to 100 scale, 0 is no effect, 100 is complete control): Preemergence, 500 g ai/ha, visual injury approx. 10 d
[7] = test system: ducksalad (Heteranthera limosa); test: Test B flooded paddy test; conditions: Flood, 250 g ai/ha; 0 to 100 scale where 0 is no effect and 100 is complete control; 13 to 15 d
In short: (§2)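 Greenhouse paddy pots with 2-leaf stage plants received compound by direct addition to floodwater 3 cm deep, kept at that level. Scored visually at 13–15 d versus controls (0 no effect; 100 complete control).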

[8] = test system: sedge, umbrella (small-flower umbrella sedge, Cyperus difformis); test: Test B flooded paddy test; conditions: Flood, 250 g ai/ha; 0 to 100 scale where 0 is no effect and 100 is complete control; 13 to 15 d
In short: as §2

[9] = test system: rice (Oryra sativa); test: Test B flooded paddy test; conditions: Flood, 250 g ai/ha; 0 to 100 scale where 0 is no effect and 100 is complete control; 13 to 15 d
In short: as §2

[10] = test system: barnyardgrass (Echinochloa crus-galli); test: Test B flooded paddy test; conditions: Flood, 250 g ai/ha; 0 to 100 scale where 0 is no effect and 100 is complete control; 13 to 15 d
In short: as §2

[11] = test system: ragweed (common ragweed, Ambrosia elatior); test: Test A postemergence; conditions: postemergence; for Ragweed plant response rating: 125 g ai/ha, visual injury rating on 0 to 100 scale (0 no effect, 100 complete control), approx. 10 d; for Plant response rating, Ragweed: 500 g ai/ha, 0 to 100 scale, 0 no effect, 100 complete control
In short: as §1

[12] = test system: ryegrass, Italian (Italian ryegrass, Lolium multiflorum); test: Test A postemergence; conditions: postemergence; for Ryegrass, Italian plant response rating: 125 g ai/ha, visual injury rating on 0 to 100 scale (0 no effect, 100 complete control), approx. 10 d; for Plant response rating, Ryegrass, Italian: 500 g ai/ha, 0 to 100 scale, 0 no effect, 100 complete control
In short: as §1

[13] = test system: Galium (catchweed bedstraw, Galium aparine); test: Test A postemergence; conditions: postemergence; for Galium plant response rating: 125 g ai/ha, visual injury rating on 0 to 100 scale (0 no effect, 100 complete control), approx. 10 d; for Plant response rating, Galium: 500 g ai/ha, 0 to 100 scale, 0 no effect, 100 complete control
In short: as §1

[14] = test system: corn (Zea mays); test: Test A postemergence; conditions: postemergence; for Corn plant response rating: 125 g ai/ha, visual injury rating on 0 to 100 scale (0 no effect, 100 complete control), approx. 10 d; for Plant response rating, Corn: 500 g ai/ha, 0 to 100 scale, 0 no effect, 100 complete control
In short: as §1

[15] = test system: Kochia (Kochia scoparia); test: Test A postemergence; conditions: postemergence; for Kochia plant response rating: 125 g ai/ha, visual injury rating on 0 to 100 scale (0 no effect, 100 complete control), approx. 10 d; for Plant response rating, Kochia: 500 g ai/ha, 0 to 100 scale, 0 no effect, 100 complete control
In short: as §1

[16] = test system: giant foxtail (Setaria faberii); test: Test A postemergence; conditions: postemergence; for Foxtail, Giant plant response rating: 125 g ai/ha, visual injury rating on 0 to 100 scale (0 no effect, 100 complete control), approx. 10 d; for Plant response rating, Foxtail, Giant: 500 g ai/ha, 0 to 100 scale, 0 no effect, 100 complete control
In short: as §1

[17] = test system: barnyardgrass (Echinochloa crus-galli); test: Test A postemergence; conditions: postemergence; for Barnyardgrass plant response rating: 125 g ai/ha, visual injury rating on 0 to 100 scale (0 no effect, 100 complete control), approx. 10 d; for Plant response rating, Barnyardgrass: 500 g ai/ha, 0 to 100 scale, 0 no effect, 100 complete control
In short: as §1

[18] = test system: wheat (Triticum aestivum); test: Test A postemergence; conditions: postemergence; for Wheat plant response rating: 125 g ai/ha, visual injury rating on 0 to 100 scale (0 no effect, 100 complete control), approx. 10 d; for Plant response rating, Wheat: 500 g ai/ha, 0 to 100 scale, 0 no effect, 100 complete control
In short: as §1

[19] = test system: pigweed (Amaranthus retroflexus); test: Test A postemergence; conditions: postemergence; for Pigweed plant response rating: 125 g ai/ha, visual injury rating on 0 to 100 scale (0 no effect, 100 complete control), approx. 10 d; for Plant response rating, Pigweed: 500 g ai/ha, 0 to 100 scale, 0 no effect, 100 complete control
In short: as §1

[20] = test system: blackgrass (Alopecurus myosuroides); test: Test A postemergence; conditions: postemergence; for Blackgrass plant response rating: 125 g ai/ha, visual injury rating on 0 to 100 scale (0 no effect, 100 complete control), approx. 10 d; for Plant response rating, Blackgrass: 500 g ai/ha, 0 to 100 scale, 0 no effect, 100 complete control
In short: as §1

SMILES	Plant response rating, Ragweed [1]	Ragweed plant response rating (0 to 100 scale, 0 is no effect, 100 is complete control) [1]	Plant response rating, Ryegrass, Italian [2]	Ryegrass, Italian plant response rating (0 to 100 scale, 0 is no effect, 100 is complete control) [2]	Plant response rating, Kochia [3]	Kochia plant response rating (0 to 100 scale, 0 is no effect, 100 is complete control) [3]	Plant response rating, Foxtail, Giant [4]	Foxtail, Giant plant response rating (0 to 100 scale, 0 is no effect, 100 is complete control) [4]	Plant response rating, Barnyardgrass [5]	Barnyardgrass plant response rating (0 to 100 scale, 0 is no effect, 100 is complete control) [5]	Plant response rating, Pigweed [6]	Pigweed plant response rating (0 to 100 scale, 0 is no effect, 100 is complete control) [6]	Plant response rating, Ducksalad [7]	Plant response rating, Sedge, Umbrella [8]	Plant response rating, Rice [9]	Plant response rating, Barnyardgrass [10]	Ragweed plant response rating [11]	Plant response rating, Ragweed [11]	Ryegrass, Italian plant response rating [12]	Plant response rating, Ryegrass, Italian [12]	further results
CN1CC(c2ccc3c(c2)OC(F)(F)O3)C(C(=O)Nc2ccccc2F)C1=O (stereo not drawn) [Compound 441]	30	80	70	80	70	80	90	90	90	90	50	70	90	0	0	70	20	50	60	60	Galium plant response rating [13]: 50; Plant response rating, Galium [13]: 50; Corn plant response rating [14]: 60; Plant response rating, Corn [14]: 70; Kochia plant response rating [15]: 40; Plant response rating, Kochia [15]: 70; Foxtail, Giant plant response rating [16]: 80; Plant response rating, Foxtail, Giant [16]: 80; Barnyardgrass plant response rating [17]: 80; Plant response rating, Barnyardgrass [17]: 90; Wheat plant response rating [18]: 50; Plant response rating, Wheat [18]: 80; Pigweed plant response rating [19]: 40; Plant response rating, Pigweed [19]: 60; Blackgrass plant response rating [20]: 50; Plant response rating, Blackgrass [20]: 80
O=C1NCC(c2ccc(Br)cc2)C1C(=O)Nc1ccc(F)cc1F (stereo not drawn) [Compound 447]	0	0	20	30	50	50	90	90	70	90	30	30	98	0	0	40	0	0	0	20	Galium plant response rating [13]: 40; Plant response rating, Galium [13]: 50; Corn plant response rating [14]: 0; Plant response rating, Corn [14]: 0; Kochia plant response rating [15]: 0; Plant response rating, Kochia [15]: 40; Foxtail, Giant plant response rating [16]: 80; Plant response rating, Foxtail, Giant [16]: 80; Barnyardgrass plant response rating [17]: 80; Plant response rating, Barnyardgrass [17]: 80; Wheat plant response rating [18]: 0; Plant response rating, Wheat [18]: 0; Pigweed plant response rating [19]: 0; Plant response rating, Pigweed [19]: 30; Blackgrass plant response rating [20]: 0; Plant response rating, Blackgrass [20]: 30
O=C1NCC(c2ccc(Br)cc2)C1C(=O)Nc1cccc(F)c1 (stereo not drawn) [Compound 449]	0	0	20	0	20	40	80	90	50	90	0	20	98	0	0	40	0	0	0	20	Galium plant response rating [13]: 0; Plant response rating, Galium [13]: 50; Corn plant response rating [14]: 0; Plant response rating, Corn [14]: 0; Kochia plant response rating [15]: 20; Plant response rating, Kochia [15]: 40; Foxtail, Giant plant response rating [16]: 30; Plant response rating, Foxtail, Giant [16]: 80; Barnyardgrass plant response rating [17]: 30; Plant response rating, Barnyardgrass [17]: 80; Wheat plant response rating [18]: 0; Plant response rating, Wheat [18]: 0; Pigweed plant response rating [19]: 0; Plant response rating, Pigweed [19]: 20; Blackgrass plant response rating [20]: 0; Plant response rating, Blackgrass [20]: 20
